Data on 14 compounds can be found in ChEMBL document CHEMBL3046085, “Synthesis, characterization and in vitro cytotoxic properties of some new Schiff and Mannich bases in Hep G2 cells” (Med Chem Res, 2011).

Converted amounts (≈) assume the structure as drawn.

The test system of assay [1] is HepG2. The assay can be described thus: Cytotoxicity against Homo sapiens (human) HepG2 cells after 24 hr by MTT assay. The note with it: HepG2, 24 h. Format: functional, cell-based. On the technique in general: Formazan colour is commonly taken as a measure of viable cells.
The subject of assay [2] is HepG2. The assay is described as follows: Cytotoxicity against Homo sapiens (human) HepG2 cells assessed as cell survival at 0.1 g/l after 24 hr by MTT assay (reference value: 78.07 +/- 1.89 to 95.31 +/- 3.09%). It counts as functional. The settings on record: HepG2, 24 h, read-out: Survival.
Assay [3] deals with HepG2. The assay can be described thus: Cytotoxicity against Homo sapiens (human) HepG2 cells assessed as cell survival at 0.01 g/l after 24 hr by MTT assay (reference value: 78.07 +/- 1.89 to 95.31 +/- 3.09%). Format: functional. The note with it: HepG2, 24 h, read-out: Survival.
For assay [4], the system named is HepG2. The assay can be described thus: Cytotoxicity against Homo sapiens (human) HepG2 cells assessed as cell survival at 0.001 g/l after 24 hr by MTT assay (reference value: 78.07 +/- 1.89 to 95.31 +/- 3.09%). It counts as functional. The settings on record: HepG2, 24 h, read-out: Survival.
In assay [5] the test system is HepG2. The assay is described as follows: Cytotoxicity against Homo sapiens (human) HepG2 cells assessed as cell survival at 0.0001 g/l after 24 hr by MTT assay (reference value: 78.07 +/- 1.89 to 95.31 +/- 3.09%). It counts as functional. The note with it: HepG2, 24 h, read-out: Survival.

Take `Cc1ccccc1OCc1n[nH]c(=S)n1/N=C/c1c[nH]nc1-c1ccc(F)cc1`: the IC50 (in general, the concentration needed to halve the response being measured) in the assay on HepG2 [1] was 48 µg/mL (≈ 118 µM).
Turning to `Cc1ccc(OCc2n[nH]c(=S)n2/N=C/c2c[nH]nc2-c2ccc(Cl)cc2)cc1`, in the assay with HepG2 [1], half-maximal inhibition (IC50) was put at 28 µg/mL (≈ 65.9 µM). Against the preceding compound, the IC50 is about 1.7-fold lower.
On the same count and under the same terms, for `Cc1ccc(OCc2n[nH]c(=S)n2/N=C/c2c[nH]nc2-c2ccc(F)cc2)cc1` the value was 45 µg/mL (≈ 110 µM).
`CCc1n[nH]cc1/C=N/n1c(COc2ccc(C)cc2)n[nH]c1=S`: the IC50 in the assay with HepG2 [1] was more than 100 µg/mL.
With `Fc1ccc(-c2n[nH]cc2/C=N/n2c(COc3ccccc3Cl)n[nH]c2=S)cc1`, the IC50 in the assay on HepG2 [1] came to 71 µg/mL (≈ 166 µM).
Compound `Cc1ccc(OCc2nn(CN(c3ccccc3)c3ccccc3)c(=S)n2/N=C/c2c[nH]nc2-c2ccc(Cl)cc2)cc1` returned an IC50 with HepG2 [1] of 97 µg/mL (≈ 160 µM).
For the compound `Cc1ccc(OCc2nn(CN(c3ccccc3)c3ccccc3)c(=S)n2/N=C/c2c[nH]nc2-c2ccc(F)cc2)cc1`, in the assay on HepG2 [1], the IC50 is 90 µg/mL (≈ 153 µM).
Same read-out and setting: as for `Cc1ccc(OCc2nn(CN3CCOCC3)c(=S)n2/N=C/c2c[nH]nc2-c2ccc(Cl)cc2)cc1`, the figure is 54 µg/mL (≈ 103 µM); as for `Cc1ccc(OCc2nn(CN3CCOCC3)c(=S)n2/N=C/c2c[nH]nc2-c2ccc(F)cc2)cc1`, 34 µg/mL (≈ 67 µM); as for `Cc1ccccc1OCc1nn(CN2CCOCC2)c(=S)n1/N=C/c1c[nH]nc1-c1ccc(Cl)cc1`, 54 µg/mL (≈ 103 µM).
Take `S=c1[nH]nc(COc2ccccc2)n1/N=C/c1c[nH]nc1-c1ccc(Cl)cc1`: the IC50 in the assay on HepG2 [1] was 18 µg/mL (≈ 43.8 µM). This IC50 lies about 3-fold lower than the previous one.
`Fc1ccc(-c2n[nH]cc2/C=N/n2c(COc3ccccc3)n[nH]c2=S)cc1` yielded a 50% inhibitory concentration (IC50) in the assay with HepG2 [1] of 71 µg/mL (≈ 180 µM). This IC50 lies about 3.9-fold higher than the previous one.
The compound `Cc1ccccc1OCc1n[nH]c(=S)n1/N=C/c1c[nH]nc1-c1ccc(Cl)cc1` displayed a half-inhibitory concentration (IC50) in the assay with HepG2 [1] of 44 µg/mL (≈ 104 µM).
In the case of `COc1cccc2c1C(=O)c1c(O)c3c(c(O)c1C2=O)C[C@@](O)(C(=O)CO)C[C@@H]3O[C@H]1C[C@H](N)[C@H](O)[C@H](C)O1` [DOXORUBICIN], the IC50 in the assay with HepG2 [1] worked out at 17 µg/mL (≈ 31.3 µM). In addition, the viability at 100 µg/mL in the assay with HepG2 [2] amounted to 35.9%. In addition, the viability at 10 µg/mL in the assay on HepG2 [3] stood at 51.2%. Moreover, the viability at 1 µg/mL with HepG2 [4] is 74.2%. For the same compound, in the assay with HepG2 [5], the viability at 0.1 µg/mL is 90%.
